Assay results taken from ChEMBL document CHEMBL1144784, “A novel series of potent and selective ketone histone deacetylase inhibitors with antitumor activity in vivo” (J Med Chem, 2008).

How the values were obtained:
[1] = biological target: Histone deacetylase 1 (Homo sapiens, UniProt Q13547)
[2] = system: HeLa; assay: Antiproliferative activity against human HeLa cells by CellTiter-Blue cell viability assay; assay type: functional, cell-based
[3] = system: Plasma; assay: Stability in rat plasma at 5 uM after 24 hrs; assay type: ADME, cell-free
[4] = AUC (0 to infinity) in Sprague-Dawley rat at 3 mg/kg, iv; assay type: ADME, organism-based; design: dose 3 mg/kg, route intravenous, time infinity; details: plasma
[5] = system: Plasma; assay: Stability in dog plasma at 5 uM after 24 hrs; assay type: ADME, cell-free, Canis lupus familiaris
[6] = system: Plasma; assay: Stability in human plasma at 5 uM after 24 hrs; assay type: ADME, cell-free
[7] = system: Plasma; assay: Stability in mouse plasma at 5 uM after 24 hrs; assay type: ADME, cell-free
[8] = Clearance in Sprague-Dawley rat plasma at 3 mg/kg, iv; assay type: ADME, organism-based; design: dose 3 mg/kg, route intravenous
[9] = biological target: T1, Histone deacetylase 8 (Homo sapiens, UniProt Q9BY41); assay: Inhibition of HDAC8 expressed in Escherichia coli
T1 sequence (Q9BY41 whole entry): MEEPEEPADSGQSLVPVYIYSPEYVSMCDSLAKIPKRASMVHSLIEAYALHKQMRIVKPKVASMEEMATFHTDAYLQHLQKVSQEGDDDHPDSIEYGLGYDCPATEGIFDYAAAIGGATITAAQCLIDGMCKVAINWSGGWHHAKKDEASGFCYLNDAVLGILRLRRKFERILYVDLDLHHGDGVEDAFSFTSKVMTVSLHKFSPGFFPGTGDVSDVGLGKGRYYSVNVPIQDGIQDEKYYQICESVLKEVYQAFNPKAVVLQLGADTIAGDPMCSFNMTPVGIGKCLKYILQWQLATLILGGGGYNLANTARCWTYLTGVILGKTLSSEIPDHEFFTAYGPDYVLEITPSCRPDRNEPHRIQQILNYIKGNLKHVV

[10] = system: G-401; assay: Antiproliferative activity against human G401 cells by CellTiter-Blue cell viability assay; assay type: functional, cell-based
[11] = biological target: Histone deacetylase 5 (Homo sapiens, UniProt Q9UQL6); assay: Inhibition of HDAC5 expressed in Escherichia coli
Sequence of Histone deacetylase 5 (Q9UQL6 whole entry): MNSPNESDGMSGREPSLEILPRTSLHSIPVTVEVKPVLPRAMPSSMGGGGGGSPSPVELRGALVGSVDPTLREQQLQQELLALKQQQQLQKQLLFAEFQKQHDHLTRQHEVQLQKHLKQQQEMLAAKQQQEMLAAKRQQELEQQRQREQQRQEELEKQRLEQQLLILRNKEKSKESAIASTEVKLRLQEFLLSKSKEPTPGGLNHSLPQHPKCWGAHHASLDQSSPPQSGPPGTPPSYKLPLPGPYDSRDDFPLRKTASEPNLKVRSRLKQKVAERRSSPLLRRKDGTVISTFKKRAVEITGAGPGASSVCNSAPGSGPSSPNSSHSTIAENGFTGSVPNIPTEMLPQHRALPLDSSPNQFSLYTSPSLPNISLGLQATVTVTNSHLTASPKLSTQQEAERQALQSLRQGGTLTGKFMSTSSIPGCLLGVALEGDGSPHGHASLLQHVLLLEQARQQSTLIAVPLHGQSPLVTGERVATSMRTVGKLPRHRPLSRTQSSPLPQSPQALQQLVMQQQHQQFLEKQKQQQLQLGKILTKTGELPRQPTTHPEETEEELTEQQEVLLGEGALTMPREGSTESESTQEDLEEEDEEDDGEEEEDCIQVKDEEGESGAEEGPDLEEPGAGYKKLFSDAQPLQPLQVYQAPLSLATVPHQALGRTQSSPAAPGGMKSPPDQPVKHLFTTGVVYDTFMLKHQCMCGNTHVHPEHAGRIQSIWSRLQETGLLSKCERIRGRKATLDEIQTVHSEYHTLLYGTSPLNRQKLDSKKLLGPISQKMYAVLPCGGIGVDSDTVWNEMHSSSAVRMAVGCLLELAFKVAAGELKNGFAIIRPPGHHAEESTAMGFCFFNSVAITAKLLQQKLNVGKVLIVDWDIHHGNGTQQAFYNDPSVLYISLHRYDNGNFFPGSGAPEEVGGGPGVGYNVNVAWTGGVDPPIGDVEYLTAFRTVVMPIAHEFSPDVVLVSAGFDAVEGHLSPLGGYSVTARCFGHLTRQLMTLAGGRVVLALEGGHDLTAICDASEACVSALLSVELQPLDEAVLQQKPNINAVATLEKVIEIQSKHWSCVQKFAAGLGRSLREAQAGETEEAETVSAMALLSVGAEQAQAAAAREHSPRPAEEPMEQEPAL

[12] = system: Plasma; assay: Stability in mouse plasma at 5 uM after 4 hrs; assay type: ADME, cell-free
[13] = system: Plasma; assay: Stability in rat plasma at 5 uM after 4 hrs; assay type: ADME, cell-free
[14] = system: Plasma; assay: Stability in human plasma at 5 uM after 4 hrs; assay type: ADME, cell-free
[15] = system: A549; assay: Antiproliferative activity against human A549 cells by CellTiter-Blue cell viability assay; assay type: functional, cell-based
[16] = biological target: Histone deacetylase 2 (Homo sapiens, UniProt Q92769)
Sequence of Histone deacetylase 2 (Q92769 whole entry): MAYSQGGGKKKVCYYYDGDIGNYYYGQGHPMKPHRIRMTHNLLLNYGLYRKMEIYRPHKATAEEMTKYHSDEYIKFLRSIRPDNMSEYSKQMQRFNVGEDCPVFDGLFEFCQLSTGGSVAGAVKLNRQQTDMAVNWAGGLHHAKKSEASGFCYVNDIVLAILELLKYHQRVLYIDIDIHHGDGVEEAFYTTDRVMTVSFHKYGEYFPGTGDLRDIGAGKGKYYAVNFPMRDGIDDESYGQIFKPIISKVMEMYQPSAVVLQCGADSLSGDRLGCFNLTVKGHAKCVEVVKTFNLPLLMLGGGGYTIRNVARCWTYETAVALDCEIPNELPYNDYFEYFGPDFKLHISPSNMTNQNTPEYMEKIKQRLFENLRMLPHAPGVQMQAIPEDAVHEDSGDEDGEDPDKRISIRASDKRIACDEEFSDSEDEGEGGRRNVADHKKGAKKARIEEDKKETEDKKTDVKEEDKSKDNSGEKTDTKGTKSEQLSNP

[17] = system: HCT-116; assay: Antiproliferative activity against human HCT116 cells by CellTiter-Blue cell viability assay; assay type: functional, cell-based
[18] = biological target: T2, Histone deacetylase 4 (Homo sapiens, UniProt P56524); assay: Inhibition of HDAC4 gain-of-function phenotype expressed in Escherichia coli
Target sequence in this assay (P56524 whole entry, looked up): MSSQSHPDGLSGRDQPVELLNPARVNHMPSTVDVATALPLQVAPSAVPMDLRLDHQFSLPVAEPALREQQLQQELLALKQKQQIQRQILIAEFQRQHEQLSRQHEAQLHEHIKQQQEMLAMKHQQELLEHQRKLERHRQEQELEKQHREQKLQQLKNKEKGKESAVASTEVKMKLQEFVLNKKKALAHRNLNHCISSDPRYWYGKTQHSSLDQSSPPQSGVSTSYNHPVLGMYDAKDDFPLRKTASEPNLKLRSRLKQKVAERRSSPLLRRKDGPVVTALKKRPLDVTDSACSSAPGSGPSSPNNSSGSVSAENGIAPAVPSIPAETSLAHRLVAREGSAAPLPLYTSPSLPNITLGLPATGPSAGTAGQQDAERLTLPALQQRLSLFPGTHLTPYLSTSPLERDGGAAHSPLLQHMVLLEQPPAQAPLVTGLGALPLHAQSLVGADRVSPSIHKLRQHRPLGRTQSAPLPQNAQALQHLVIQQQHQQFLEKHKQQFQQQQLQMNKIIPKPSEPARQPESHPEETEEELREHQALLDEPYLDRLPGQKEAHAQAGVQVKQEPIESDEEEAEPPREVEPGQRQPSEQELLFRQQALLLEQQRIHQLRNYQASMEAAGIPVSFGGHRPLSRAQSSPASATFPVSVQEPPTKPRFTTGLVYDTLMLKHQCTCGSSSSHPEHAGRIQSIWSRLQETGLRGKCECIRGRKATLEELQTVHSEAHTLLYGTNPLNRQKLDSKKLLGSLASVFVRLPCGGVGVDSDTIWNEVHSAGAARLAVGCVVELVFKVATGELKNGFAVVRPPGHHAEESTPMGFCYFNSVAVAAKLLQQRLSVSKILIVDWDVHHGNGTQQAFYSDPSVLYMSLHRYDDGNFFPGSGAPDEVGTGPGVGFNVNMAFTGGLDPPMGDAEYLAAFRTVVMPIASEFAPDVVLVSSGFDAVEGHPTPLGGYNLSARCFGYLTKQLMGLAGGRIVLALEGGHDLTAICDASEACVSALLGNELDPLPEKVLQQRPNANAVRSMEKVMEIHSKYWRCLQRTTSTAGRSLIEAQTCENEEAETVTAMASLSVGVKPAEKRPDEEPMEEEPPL

[19] = biological target: T3, Histone deacetylase 7 (Homo sapiens, UniProt Q8WUI4); assay: Inhibition of HDAC7 expressed in Escherichia coli
T3 sequence (Q8WUI4 whole entry): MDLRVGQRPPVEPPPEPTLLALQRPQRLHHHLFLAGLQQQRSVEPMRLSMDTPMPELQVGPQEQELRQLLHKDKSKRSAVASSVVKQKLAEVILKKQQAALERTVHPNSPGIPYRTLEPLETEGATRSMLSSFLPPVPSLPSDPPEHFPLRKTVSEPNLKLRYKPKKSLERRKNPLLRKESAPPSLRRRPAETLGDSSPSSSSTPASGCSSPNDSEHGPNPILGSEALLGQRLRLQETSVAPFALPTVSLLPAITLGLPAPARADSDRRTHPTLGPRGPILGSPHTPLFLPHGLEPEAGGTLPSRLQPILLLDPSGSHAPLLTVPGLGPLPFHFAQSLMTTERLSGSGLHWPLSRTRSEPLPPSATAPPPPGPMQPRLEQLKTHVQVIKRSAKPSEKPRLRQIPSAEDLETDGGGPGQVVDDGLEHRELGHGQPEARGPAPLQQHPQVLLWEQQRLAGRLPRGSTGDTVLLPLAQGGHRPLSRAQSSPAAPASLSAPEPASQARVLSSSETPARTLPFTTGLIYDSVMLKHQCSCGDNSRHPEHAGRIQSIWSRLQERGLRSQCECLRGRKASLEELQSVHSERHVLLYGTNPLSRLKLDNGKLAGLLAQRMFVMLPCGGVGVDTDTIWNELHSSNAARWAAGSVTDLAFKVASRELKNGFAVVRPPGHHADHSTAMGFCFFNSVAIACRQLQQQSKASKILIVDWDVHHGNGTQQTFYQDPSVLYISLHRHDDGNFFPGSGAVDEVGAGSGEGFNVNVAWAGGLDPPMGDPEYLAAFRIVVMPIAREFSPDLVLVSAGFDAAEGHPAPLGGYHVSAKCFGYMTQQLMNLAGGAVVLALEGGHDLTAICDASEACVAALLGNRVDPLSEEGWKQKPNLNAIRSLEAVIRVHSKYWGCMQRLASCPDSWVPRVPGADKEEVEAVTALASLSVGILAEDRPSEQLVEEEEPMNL

[20] = biological target: T2, Histone deacetylase 4; assay: Inhibition of HDAC4 expressed in Escherichia coli
Target sequence in this assay (P56524 whole entry): as the sequence (P56524 whole entry, looked up) above

[21] = biological target: T4, Protein deacetylase HDAC6 (Homo sapiens, UniProt Q9UBN7)
T4 sequence (Q9UBN7 whole entry): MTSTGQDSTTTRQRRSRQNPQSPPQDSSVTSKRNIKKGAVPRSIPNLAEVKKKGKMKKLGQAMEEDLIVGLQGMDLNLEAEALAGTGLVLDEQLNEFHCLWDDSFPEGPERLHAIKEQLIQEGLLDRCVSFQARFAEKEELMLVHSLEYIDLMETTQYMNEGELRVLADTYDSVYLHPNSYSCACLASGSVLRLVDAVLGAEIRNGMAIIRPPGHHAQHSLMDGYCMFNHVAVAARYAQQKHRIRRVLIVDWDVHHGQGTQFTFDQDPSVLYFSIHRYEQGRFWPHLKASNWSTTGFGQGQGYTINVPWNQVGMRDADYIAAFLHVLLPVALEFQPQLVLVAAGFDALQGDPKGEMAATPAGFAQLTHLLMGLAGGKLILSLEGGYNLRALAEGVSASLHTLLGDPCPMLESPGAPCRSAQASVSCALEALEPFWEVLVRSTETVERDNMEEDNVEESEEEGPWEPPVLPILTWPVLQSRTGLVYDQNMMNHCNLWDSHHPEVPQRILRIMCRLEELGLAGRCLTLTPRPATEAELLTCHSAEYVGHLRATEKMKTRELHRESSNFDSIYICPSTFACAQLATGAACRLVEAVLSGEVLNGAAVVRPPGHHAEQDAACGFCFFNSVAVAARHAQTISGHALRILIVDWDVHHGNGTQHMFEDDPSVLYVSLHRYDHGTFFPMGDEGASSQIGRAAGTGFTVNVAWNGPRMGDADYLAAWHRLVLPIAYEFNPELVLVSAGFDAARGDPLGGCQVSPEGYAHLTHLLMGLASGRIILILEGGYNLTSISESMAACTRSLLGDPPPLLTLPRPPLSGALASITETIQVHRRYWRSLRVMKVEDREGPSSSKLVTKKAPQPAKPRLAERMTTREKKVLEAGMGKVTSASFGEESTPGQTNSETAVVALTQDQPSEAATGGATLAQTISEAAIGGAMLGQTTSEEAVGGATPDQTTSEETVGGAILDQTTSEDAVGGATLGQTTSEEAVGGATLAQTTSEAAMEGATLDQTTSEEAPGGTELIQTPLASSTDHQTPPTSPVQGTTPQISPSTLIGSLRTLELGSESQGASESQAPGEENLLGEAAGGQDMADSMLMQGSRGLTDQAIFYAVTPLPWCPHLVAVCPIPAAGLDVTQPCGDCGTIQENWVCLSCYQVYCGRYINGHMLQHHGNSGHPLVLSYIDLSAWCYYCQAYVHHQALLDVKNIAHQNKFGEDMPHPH

[22] = system: Plasma; assay: Stability in dog plasma at 5 uM after 4 hrs; assay type: ADME, cell-free, Canis lupus familiaris
[23] = system: A2780; assay: Antiproliferative activity against human A2780 cells by CellTiter-Blue cell viability assay; assay type: functional, cell-based
[24] = biological target: Histone deacetylase 3 (Homo sapiens, UniProt O15379)
Sequence of Histone deacetylase 3 (O15379 whole entry): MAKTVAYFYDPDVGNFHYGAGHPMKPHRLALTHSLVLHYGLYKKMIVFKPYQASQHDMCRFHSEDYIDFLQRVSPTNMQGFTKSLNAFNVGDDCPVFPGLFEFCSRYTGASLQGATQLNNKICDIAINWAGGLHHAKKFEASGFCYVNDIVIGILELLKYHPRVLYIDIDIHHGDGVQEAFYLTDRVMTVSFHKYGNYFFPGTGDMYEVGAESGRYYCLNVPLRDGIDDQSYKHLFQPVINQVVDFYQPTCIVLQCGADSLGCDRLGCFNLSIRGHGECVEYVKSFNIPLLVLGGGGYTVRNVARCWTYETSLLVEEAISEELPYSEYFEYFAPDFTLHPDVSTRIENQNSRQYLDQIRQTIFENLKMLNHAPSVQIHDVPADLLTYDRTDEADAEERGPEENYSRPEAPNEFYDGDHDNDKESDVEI

[25] = Antiproliferative activity against human renal epithelial cells by CellTiter-Blue cell viability assay; assay type: ADME, cell-based
[26] = system: HCT-116; assay: Antitumor activity against human HCT116 cells xenografted BALB/c mouse assessed as tumor growth inhibition at 60 mg/kg, ip administered for 5 days per week for 2.5 weeks; details: HCT-116, ip, read-out: TGI
[27] = Toxicity in ip dosed BALB/c mouse assessed as maximum tolerated dose; assay type: organism-based; details: in vivo
[28] = system: Mus musculus; assay: Toxicity against human HCT116 cells xenografted BALB/c mouse assessed as body weight loss at 25 mg/kg, ip administered 5 days per week for 2.5 weeks; assay type: organism-based, HCT-116; design: dose 25 mg/kg, route intraperitoneal; details: in vivo
[29] = Intrinsic clearance in Sprague-Dawley rat liver microsomes; assay type: ADME, Microsome
[30] = Clearance in Sprague-Dawley rat plasma; assay type: ADME, organism-based
[31] = system: Mus musculus; assay: Toxicity against human HCT116 cells xenografted BALB/c mouse assessed as body weight loss at 60 mg/kg, ip administered 5 days per week for 2.5 weeks; assay type: organism-based, HCT-116; design: dose 60 mg/kg, route intraperitoneal; details: in vivo
[32] = Oral bioavailability in Sprague-Dawley rat; assay type: ADME, organism-based; details: in vivo
[33] = Terminal half life in Sprague-Dawley rat; assay type: ADME, organism-based; details: in vivo
[34] = Intrinsic clearance in human liver microsomes; assay type: ADME, Microsome
[35] = system: Mus musculus; assay: Toxicity against human HCT116 cells xenografted BALB/c mouse assessed as body weight loss at 100 mg/kg, ip administered 5 days per week for 2.5 weeks; assay type: organism-based, HCT-116; design: dose 100 mg/kg, route intraperitoneal; details: in vivo
[36] = biological target: T5, Protein deacetylase HDAC6 (Homo sapiens) (UniProt Q9UBN7); assay: Inhibition of HDAC6 at 10 uM
T5 sequence (whole entry): T4 sequence (Q9UBN7 whole entry)

[37] = biological target: T6, Histone deacetylase 8 (Homo sapiens) (UniProt Q9BY41); details: 10 uM
T6 sequence (whole entry): T1 sequence (Q9BY41 whole entry)
Description: Inhibition of HDAC8 expressed in Escherichia coli at 10 uM

Sequence of Histone deacetylase 1 (Q13547 whole entry): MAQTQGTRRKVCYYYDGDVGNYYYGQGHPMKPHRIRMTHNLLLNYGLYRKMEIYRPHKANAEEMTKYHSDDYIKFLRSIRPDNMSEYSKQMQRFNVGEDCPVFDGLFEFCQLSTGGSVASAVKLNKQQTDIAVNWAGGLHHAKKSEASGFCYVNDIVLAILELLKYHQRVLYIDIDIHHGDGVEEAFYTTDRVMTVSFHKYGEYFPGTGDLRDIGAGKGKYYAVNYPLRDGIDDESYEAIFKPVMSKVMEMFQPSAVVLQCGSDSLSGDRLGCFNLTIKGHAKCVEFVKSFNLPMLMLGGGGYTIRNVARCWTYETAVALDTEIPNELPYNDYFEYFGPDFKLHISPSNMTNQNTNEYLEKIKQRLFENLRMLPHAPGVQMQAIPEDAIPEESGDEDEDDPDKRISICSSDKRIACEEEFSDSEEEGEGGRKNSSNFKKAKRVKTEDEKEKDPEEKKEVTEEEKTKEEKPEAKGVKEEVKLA

Row | SMILES | IC50 [1] | IC50 [2] | IC50 [9] | IC50 [10] | IC50 [11] | Stability [12] | Stability [13] | Stability [14] | IC50 [15] | IC50 [16] | IC50 [17] | IC50 [18] | IC50 [19] | IC50 [20] | IC50 [21] | Stability [22] | IC50 [23] | IC50 [24] | IC50 [25] | MTD [27] | also measured
1 | CC(=O)CCCCC[C@H](NC(=O)CCN1CCCCC1)C(=O)Nc1cnc2ccccc2c1.Cl.Cl | 0.14 µM | 2 µM |  |  |  |  |  |  |  |  |  |  |  |  |  |  |  |  |  |  | Activity [3]: Not Active; AUC(0-inf) [4]: 50 nM·h; Stability [5]: Stable; Stability [6]: Stable; Activity [7]: Not Active; clearance [8]: > 9 L/h/kg
2 | COc1ccc2[nH]c(C)c(CC(=O)N[C@@H](CCCCCC(C)=O)c3nc4ccc(Cl)cc4[nH]3)c2c1 | 0.67 µM | 3.1 µM | > 10 µM | 7.5 µM | > 10 µM | Stable | Stable | Stable | 8.2 µM | 0.88 µM | 4.2 µM | 4.2 µM | > 10 µM | > 10 µM | 0.97 µM | Stable | 11 µM | 1 µM | 41 µM |  | 
3 | Nc1ccccc1NC(=O)c1ccc(CNC(=O)OCc2cccnc2)cc1 [ENTINOSTAT] |  |  |  | 1.3 µM |  |  |  |  | 1.2 µM |  | 0.7 µM |  |  |  |  |  | 3 µM |  | > 20 µM | 25 mg/kg | inhibition in vivo at 60 mg/kg [26]: 69%; Activity [28]: < 10%
4 | COc1ccc2[nH]c(C)c(CC(=O)N[C@@H](CCCCCC(C)=O)c3ncc(-c4ccccc4)[nH]3)c2c1 | 0.059 µM | 0.88 µM | > 5 µM | 0.96 µM | > 10 µM | Stable | Stable | Stable | 6.3 µM | 0.11 µM | 0.5 µM | 6 µM | > 10 µM | > 10 µM | 0.34 µM | Stable | 2.2 µM | 0.12 µM | 16 µM | 60 mg/kg | microsomal CLint [29]: > 400 µL/min/mg; clearance [30]: 4.8 L/h/kg; Activity [31]: < 10%; bioavailability [32]: 15%; half-life [33]: 1.3 h; microsomal CLint [34]: > 400 µL/min/mg
5 | O=C(CCCCCCC(=O)Nc1ccccc1)NO [VORINOSTAT] |  |  |  |  |  |  |  |  |  |  |  |  |  |  |  |  |  |  |  |  | Activity [35]: < 10%
6 | CCC(=O)CCCCC[C@H](NC(=O)Cc1c(C)[nH]c2ccc(OC)cc12)c1ncc(-c2ccccc2)[nH]1 | 0.026 µM | 0.34 µM |  | 0.25 µM | > 10 µM |  |  |  | 5.2 µM | 0.059 µM | 0.33 µM | > 10 µM | > 10 µM | > 10 µM |  |  | 0.42 µM | 0.048 µM | 5.3 µM |  | inhibition [36]: 40%; inhibition [37]: 40%
